Patent US11865158B2, “Process and composition matter of nanoparticle formulation for systemic treatment of sepsis” (PURDUE RESEARCH FOUNDATION, priority 2019, dated 2024)

What was measured:
[1] = test system: Klebsiella pneumoniae NR-41920; test: Effect on bacterial membrane (SEM); format: cell-based; conditions: 5×MIC for 1.5 h
Protocol: Effect on bacterial membrane. […] The bacteria were collected by centrifugation at 5000 rcf for 10 min, fixed in 2.5% glutaraldehyde solution at 4° C., and placed on poly-1-lysine coated coverslip. After 1 h, the coverslip was rinsed three times with water (5 min each) and incubated in 2% Osmium tetroxide for 30 min. SEM imaging was performed as described in previous section.

[2] = test system: LPS-induced NF-kB/AP-1 activation in THP1-XBlue-MD2-CD14 cells; test: In vitro anti-LPS activity, SEAP reporter assay, LPS added simultaneously with treatment; format: cell-based, human; conditions: 10 ng/mL LPS, free PMB at 150 μg/mL
Protocol: To investigate if D-TZP can neutralize LPS, a reporter cell line responding to LPS was incubated with LPS and free PMB or D-TZP's (with different amounts of PMB). THP1-XBlue-MD2-CD14, derived from the human monocytic THP-1 cell line, overexpresses MD2 and CD14 to amplify the response to TLR4 agonist LPS. Color change of the Quanti-Blue reagent (NF-kB/AP-1-inducible secreted embryonic alkaline phosphatase (SEAP) reporter protein) reflects NF-kB/AP-1 activation due to LPS. LPS-induced SEAP production was measured at 620 nm. The reporter cells with 10 ng/mL of LPS expressed a high level of SEAP as compared to non-challenged cells. […] A supernatant was obtained from each mixture to separate unbound LPS and added to THP1-XBlue-MD2-CD14 cells.
In vitro anti-LPS activity. Five microliters of LPS ([…]) was mixed with 15 μL of free PMB, D-TZP, or TZP at different concentrations in a flat-bottom 96-well plate. THP1-XBlue-MD2-CD14 cell suspension (10^5 cells in 180 μL) was then added to the mixtures. After 24 h incubation, cells were centrifugated at 233 rcf for 5 min. Twenty microliters of the cell medium was mixed with the Quanti-Blue reagent. After 2 h incubation, the color was measured at 620 nm by a Spectra Max M3 microplate reader (Molecular Devices, Sunnyvale, CA). […] The medium was analyzed in the same manner as above.

J774a.1 macrophages [3] = test: Effect on cell membrane, confocal microscopy with wheat germ agglutinin; format: cell-based; conditions: eq. to 150 μg/mL PMB, 12 h
Protocol: (§1) Effect of PMB and D-TZP on cell membrane. The effect of D-TZP on J774A.1 cell membrane was monitored by two methods (scanning electron microscopy and confocal microscopy). For scanning electron microscopy, J774A.1 macrophages were plated in a 6-well plate at a density of 3×10^5 cells per well with 3 mL of complete medium. After overnight incubation at 37° C. in a 5% CO2 atmosphere, the cells were treated with either free PMB or D-TZP at a concentration equivalent to 150 μg/mL PMB for 12 h. The cells were centrifuged at 233 relative centrifugal force (rcf) for 3 min. The medium was removed, and 2.5% glutaraldehyde solution was added for fixation overnight at 4° C. The cells were then rinsed three times with water (5 min each) and incubated in 2% Osmium tetroxide for 1 h. After rinsing another three times with water (5 min each), the cells were dehydrated with a series of ethanol gradients (50%, 75%, 95%) for 10 minutes at each step. The dehydrated cells were rinsed with 100% ethanol three times for 10 minutes each time, stored in a 1:1 mixture of HMDS and ethanol in 1:1 for 30 min, and rinsed with 100% HMDS for 30 min twice. After overnight drying, the cells were placed on a carbon tape attached to an aluminum stud and coated with platinum for SEM analysis. The morphology of treated J774a.1 cells then was observed by a FEI NOVA NanoSEM scanning electron microscope (SEM). […]

J774a.1 macrophages [4] = test: Effect on cell membrane, SEM; format: cell-based; conditions: eq. to 150 μg/mL PMB, 12 h
Protocol: as §1

[5] = test system: cecal ligation and puncture (CLP) model; test: Therapeutic efficacy in cecal ligation and puncture (CLP) polymicrobial sepsis model; format: in vivo, C57BL/6 mice; conditions: IV 2 h post-CLP and every 2 days, max three times; D-TZP and TZP 10 mg/kg PMB eq., free PMB 5 mg/kg
Protocol: The efficacy of systemic […] was further tested in cecal ligation and puncture (CLP) model, which induces systemic inflammation by polymicrobial infection and thus simulates a clinically relevant septic state (Toscano, M. G. et al., JoVE, e2860 (2011)). D-TZP and TZP was administered IV at 10 mg/kg PMB eq. 2 h post-CLP and every subsequent 2 days a maximum total of three times. Free PMB was given at 5 mg/kg IV in the same schedule as D-TZP.
Therapeutic efficacy in polymicrobial sepsis model by cecal ligation and puncture (CLP). The efficacy of D-TZP and TZP was evaluated in a cecal ligation and puncture (CLP) model, the gold standard of polymicrobial sepsis model. The abdomen of 6 week-old C57BL/6 male was cleaned with a hair-removal cream (Nair, Church & Dwight Co., Inc). The mice were anesthetized by 2.5% isofluorane. Betadine 0.5% solution and 70% isopropyl alcohol swap were alternately applied three times to disinfect the shaved abdomen. Midline laparotomy was performed under an aseptic condition to exteriorize the cecum. The cecum was ligated below the ileocecal valve with a 5-0 suture (perma-hand silk, Ethicon) and perforated twice with 20 G needle on the same side of the cecum to release feces into the peritoneal cavity. After perforation, the intestines were returned to abdominal cavity. […] Animals were monitored as described in the endotoxemia model.

With polymyxin B [PMB] the “bacterial membrane morphology by SEM” value [1] was “induced deformation of bacterial membrane”, the “LPS-induced SEAP production” value [2] was “reduced the SEAP production” and the “cell membrane staining with wheat germ agglutinin” value (J774a.1 macrophages [3]) was “significant membrane damage”. The “cell membrane morphology by SEM” value (J774a.1 macrophages [4]) was “deformed membrane morphology” and the survival [5] was 33%.
